Reference: PubChem BioAssay AID334 (DTP/NCI, 2004)
Values joined by “and” are separate entries in the source; they are usually repeats but may differ in a detail not shown here. Identical values can stand only once. Inconclusive results and toxic doses are left out.

System: CD2F1 mice, intracerebral P388 leukemia, median survival T/C%
Assay: NCI In Vivo Anticancer Drug Screen. Data for tumor model P388 Leukemia (intracerebral) in CD2F1 (CDF1) mice
Conditions: endpoint: median survival time, higher = longer survival
Experimental: The antitumor activity of compounds was measured in mice bearing transplantable tumors. Survival or tumor size were measured and the results are expressed as the measurement made in the treated group (T) divided by the measurement made in the vehicle treated control group (C). The tumor model used in this assay is P388 Leukemia (intracerebral) in CD2F1 (CDF1) mice

[1] = dose: 8.0 mg/kg/injection, schedule: Q01DX009 (ip), vehicle: saline
[2] = dose: 50.0 mg/kg/injection, schedule: Q01DX009 (ip), vehicle: saline

Q: Which T/C (dose: 0.63 mg/kg/injection, schedule: Q01DX009 (ip), vehicle: olive oil, sesame oil, peanut oil) does the source give for `CN(Cc1cnc2nc(N[Si](C)(C)C)nc(N[Si](C)(C)C)c2n1)c1ccc(C(=O)NC(CCC(=O)O[Si](C)(C)C)C(=O)O[Si](C)(C)C)cc1` (stereo not given) here?
A: 110 % of control

Q: And the T/C (dose: 0.63 mg/kg/injection, schedule: Q01DX009 (ip), vehicle: saline)?
A: 90 % of control

Q: What about the T/C (dose: 1.25 mg/kg/injection, schedule: Q01DX009 (ip), vehicle: olive oil, sesame oil, peanut oil) of the same compound?
A: 110 % of control

Q: And the T/C (dose: 1.25 mg/kg/injection, schedule: Q01DX009 (ip), vehicle: saline)?
A: 100 % of control

Q: What about the T/C (dose: 1.9 mg/kg/injection, schedule: Q04DX003 (ip), vehicle: saline) of the same compound?
A: 95 % of control

Q: What about the T/C (dose: 2.5 mg/kg/injection, schedule: Q01DX009 (ip), vehicle: saline) of the same compound?
A: 100 % of control

Q: And the T/C (dose: 3.8 mg/kg/injection, schedule: Q04DX003 (ip), vehicle: saline)?
A: 95 % of control

Q: And the T/C (dose: 5.0 mg/kg/injection, schedule: Q01DX009 (ip), vehicle: saline)?
A: 95 % of control

Q: What about the T/C (dose: 15.0 mg/kg/injection, schedule: Q04DX003 (ip), vehicle: saline) of the same compound?
A: 110 % of control

Q: What about the T/C (dose: 30.0 mg/kg/injection, schedule: Q04DX003 (ip), vehicle: saline) of the same compound?
A: 120 % of control

Q: What about the T/C (dose: 60.0 mg/kg/injection, schedule: Q04DX003 (ip), vehicle: saline) of the same compound?
A: 115 % of control

Q: Which results are given for `CN(Cc1cnc2nc(N)nc(N)c2n1)c1c(Cl)cc(C(=O)NC(CCC(=O)O)C(=O)O)cc1Cl` (stereo not given)?
A: T/C (dose: 16.0 mg/kg/injection, schedule: Q01DX005 (ip), vehicle: saline): 115 % of control; T/C (dose: 32.0 mg/kg/injection, schedule: Q01DX005 (ip), vehicle: saline): 121 % of control; T/C (dose: 128.0 mg/kg/injection, schedule: Q01DX005 (ip), vehicle: saline): 86 % of control

Q: How did the T/C (dose: 1.0 mg/kg/injection, schedule: Q01DX009 (ip), vehicle: saline) turn out when `Nc1ccc2nc3ccc(N)cc3[n+](-c3ccccc3)c2c1` was run?
A: 89 % of control

Q: What about the T/C (dose: 2.0 mg/kg/injection, schedule: Q01DX009 (ip), vehicle: saline) of the same compound?
A: 87 % of control

Q: And the T/C (dose: 4.0 mg/kg/injection, schedule: Q01DX009 (ip), vehicle: saline)?
A: 99 % of control

Q: What about the T/C [1] of the same compound?
A: 99 % of control

Q: How did the T/C (dose: 6.25 mg/kg/injection, schedule: Q01DX009 (ip), vehicle: saline) turn out when `CS(=O)(=O)CS(=O)(=O)OCCCl` was run?
A: 110 % of control

Q: And the T/C (dose: 12.5 mg/kg/injection, schedule: Q01DX009 (ip), vehicle: saline)?
A: 114 % of control

Q: What about the T/C (dose: 25.0 mg/kg/injection, schedule: Q01DX009 (ip), vehicle: saline) of the same compound?
A: 164 % of control

Q: And the T/C [2]?
A: 203 % of control

Q: `Nc1ncnc2c1ncn2C1OC(COP(=O)(O)O)C(O)C1O` (stereo not given) was tested. Which T/C [2] did it give?
A: 97 % of control

Q: And the T/C (dose: 1600.0 mg/kg/injection, schedule: Q01DX009 (ip), vehicle: saline)?
A: 100 % of control and 104 % of control

Q: With `CN(C)CC(=O)c1ccc(O)c(O)c1` as the compound, how does the T/C (dose: 100.0 mg/kg/injection, schedule: Q01DX005 (ip), vehicle: saline) read?
A: 103 % of control

Q: And the T/C (dose: 100.0 mg/kg/injection, schedule: Q01DX005 (ip), vehicle: suspension in saline)?
A: 93 % of control

Q: What about the T/C (dose: 200.0 mg/kg/injection, schedule: Q01DX005 (ip), vehicle: saline) of the same compound?
A: 108 % of control

Q: What about the T/C (dose: 200.0 mg/kg/injection, schedule: Q01DX005 (ip), vehicle: suspension in saline) of the same compound?
A: 104 % of control

Q: And the T/C (dose: 400.0 mg/kg/injection, schedule: Q01DX005 (ip), vehicle: saline)?
A: 104 % of control

Q: What about the T/C (dose: 400.0 mg/kg/injection, schedule: Q01DX005 (ip), vehicle: suspension in saline) of the same compound?
A: 107 % of control

Q: With `COc1cccc2c1C(=O)c1c(O)c3c(c(O)c1C2=O)CC(O)(C(=O)CO)CC3OC1CC(N)C(O)C(C)O1` (stereo not given) as the compound, how does the T/C (dose: 0.78 mg/kg/injection, schedule: Q04DX003 (ip), vehicle: saline) read?
A: 107 % of control

Q: What about the T/C (dose: 1.56 mg/kg/injection, schedule: Q04DX003 (ip), vehicle: saline) of the same compound?
A: 98 % of control

Q: And the T/C (dose: 3.12 mg/kg/injection, schedule: Q04DX003 (ip), vehicle: saline)?
A: 106 % of control

Q: And the T/C (dose: 3.75 mg/kg/injection, schedule: Q04DX003 (ip), vehicle: clinical formulation)?
A: 100 % of control

Q: And the T/C (dose: 3.75 mg/kg/injection, schedule: Q04DX003 (iv), vehicle: clinical formulation)?
A: 100 % of control

Q: What about the T/C (dose: 6.25 mg/kg/injection, schedule: Q04DX003 (ip), vehicle: saline) of the same compound?
A: 97 % of control

Q: What about the T/C (dose: 7.5 mg/kg/injection, schedule: Q04DX003 (ip), vehicle: clinical formulation) of the same compound?
A: 103 % of control

Q: And the T/C (dose: 7.5 mg/kg/injection, schedule: Q04DX003 (iv), vehicle: clinical formulation)?
A: 99 % of control

Q: What about the T/C (dose: 12.5 mg/kg/injection, schedule: Q04DX003 (ip), vehicle: saline) of the same compound?
A: 103 % of control

Q: And the T/C (dose: 15.0 mg/kg/injection, schedule: Q04DX003 (ip), vehicle: clinical formulation)?
A: 100 % of control

Q: And the T/C (dose: 15.0 mg/kg/injection, schedule: Q04DX003 (iv), vehicle: clinical formulation)?
A: 106 % of control

Q: And the T/C (dose: 25.0 mg/kg/injection, schedule: Q04DX003 (ip), vehicle: saline)?
A: 91 % of control

Q: What about the T/C (dose: 30.0 mg/kg/injection, schedule: Q04DX003 (iv), vehicle: clinical formulation) of the same compound?
A: 90 % of control

Q: With `COCC(O)Cn1ccnc1[N+](=O)[O-]` (stereo not given) as the compound, how does the T/C (dose: 32.0 mg/kg/injection, schedule: Q01DX009 (ip), vehicle: Klucel (hydroxypropylcellulose) (HPC)) read?
A: 113 % of control

Q: And the T/C (dose: 64.0 mg/kg/injection, schedule: Q01DX009 (ip), vehicle: Klucel (hydroxypropylcellulose) (HPC))?
A: 102 % of control

Q: And the T/C (dose: 128.0 mg/kg/injection, schedule: Q01DX009 (ip), vehicle: Klucel (hydroxypropylcellulose) (HPC))?
A: 96 % of control

Q: And the T/C (dose: 256.0 mg/kg/injection, schedule: Q01DX009 (ip), vehicle: Klucel (hydroxypropylcellulose) (HPC))?
A: 102 % of control

Q: And the T/C (dose: 512.0 mg/kg/injection, schedule: Q01DX009 (ip), vehicle: Klucel (hydroxypropylcellulose) (HPC))?
A: 102 % of control

Q: With `CC1(C)N=C(N)N=C(N)N1c1ccc(CCCCc2cccc(S(=O)(=O)F)c2)c(Cl)c1` as the compound, how does the T/C [1] read?
A: 94 % of control

Q: And the T/C (dose: 12.0 mg/kg/injection, schedule: Q01DX009 (ip), vehicle: saline)?
A: 116 % of control

Q: And the T/C (dose: 18.0 mg/kg/injection, schedule: Q01DX009 (ip), vehicle: saline)?
A: 105 % of control

Q: And the T/C (dose: 27.0 mg/kg/injection, schedule: Q01DX009 (ip), vehicle: saline)?
A: 88 % of control

Q: `CC[C@]1(O)C[C@H]2CN(CCc3c([nH]c4ccccc34)[C@@](C(=O)OC)(c3cc4c(cc3OC)N(C=O)[C@H]3[C@@](O)(C(=O)OC)[C@H](OC(C)=O)[C@]5(CC)C=CCN6CC[C@]43[C@@H]65)C2)C1` was tested. Which T/C (dose: 0.2 mg/kg/injection, schedule: Q04DX003 (ip), vehicle: water) did it give?
A: 111 % of control

Q: What about the T/C (dose: 0.4 mg/kg/injection, schedule: Q04DX003 (ip), vehicle: water) of the same compound?
A: 106 % of control

Q: What about the T/C (dose: 0.8 mg/kg/injection, schedule: Q04DX003 (ip), vehicle: water) of the same compound?
A: 116 % of control

Q: And the T/C (dose: 1.6 mg/kg/injection, schedule: Q04DX003 (ip), vehicle: water)?
A: 109 % of control

Q: What about the T/C (dose: 3.2 mg/kg/injection, schedule: Q04DX003 (ip), vehicle: water) of the same compound?
A: 106 % of control

Q: What does the source list for `CS(C)=O`?
A: T/C (dose: 1000.0 mg/kg/injection, schedule: Q01DX005 (ip), vehicle: saline): 104 % of control and 107 % of control; T/C (dose: 2000.0 mg/kg/injection, schedule: Q01DX005 (ip), vehicle: saline): 100 % of control and 104 % of control; T/C (dose: 4000.0 mg/kg/injection, schedule: Q01DX005 (ip), vehicle: saline): 100 % of control and 105 % of control; T/C (dose: 8000.0 mg/kg/injection, schedule: Q01DX005 (ip), vehicle: saline): 105 % of control and 108 % of control

Q: How did the T/C (dose: 1.88 mg/kg/injection, schedule: Q03HX008 (ip), vehicle: saline) turn out when `CCCCCCCCCCCCCCCCCC(=O)NC(Cc1ccc(N(CCCl)CCCl)cc1)C(=O)O` (stereo not given) was run?
A: 110 % of control

Q: What about the T/C (dose: 3.75 mg/kg/injection, schedule: Q03HX008 (ip), vehicle: saline) of the same compound?
A: 115 % of control

Q: How did the T/C (dose: 12.5 mg/kg/injection, schedule: Q01DX009 (ip), vehicle: saline with Tween-80) turn out when `CC1(CO)C(O)CCC2(C)C1CCC1CC3CC12CCC3(O)CO` (stereo not given) was run?
A: 94 % of control

Q: What about the T/C (dose: 25.0 mg/kg/injection, schedule: Q01DX009 (ip), vehicle: saline with Tween-80) of the same compound?
A: 113 % of control

Q: What about the T/C (dose: 50.0 mg/kg/injection, schedule: Q01DX009 (ip), vehicle: saline with Tween-80) of the same compound?
A: 100 % of control

Q: And the T/C (dose: 100.0 mg/kg/injection, schedule: Q01DX009 (ip), vehicle: saline with Tween-80)?
A: 94 % of control

Q: And the T/C (dose: 200.0 mg/kg/injection, schedule: Q01DX009 (ip), vehicle: saline with Tween-80)?
A: 96 % of control

Q: `C[n+]1c2ccccc2nc2c(N)cc(N)cc21` was tested. Which T/C (dose: 4.0 mg/kg/injection, schedule: Q01DX005 (ip), vehicle: suspension in saline) did it give?
A: 114 % of control and 97 % of control

Q: And the T/C (dose: 8.0 mg/kg/injection, schedule: Q01DX005 (ip), vehicle: suspension in saline)?
A: 94 % of control and 103 % of control

Q: What about the T/C (dose: 16.0 mg/kg/injection, schedule: Q01DX005 (ip), vehicle: suspension in saline) of the same compound?
A: 104 % of control and 106 % of control

Q: What about the T/C (dose: 32.0 mg/kg/injection, schedule: Q01DX005 (ip), vehicle: suspension in saline) of the same compound?
A: 102 % of control and 108 % of control

Q: `CC(=O)N(C)c1ccc(Nc2cc(C)[nH]c3ccc4ncnc4c23)cc1` was tested. Which T/C (dose: 10.0 mg/kg/injection, schedule: Q01DX005 (ip), vehicle: saline) did it give?
A: 107 % of control

Q: What about the T/C (dose: 20.0 mg/kg/injection, schedule: Q01DX005 (ip), vehicle: saline) of the same compound?
A: 106 % of control

Q: What about the T/C (dose: 40.0 mg/kg/injection, schedule: Q01DX005 (ip), vehicle: saline) of the same compound?
A: 104 % of control
